Assay results taken from patent US5710130A, “Antithrombotic agents” (Eli Lilly and Company, priority 1995, dated 1998).
Where a name gives a salt, the structure may show the parent alone.

Assays:
human plasma [1] = assay: Human plasma anticoagulation, activated partial thromboplastin time (APTT); type: biochemical; details: concentration required to double APTT, linear extrapolation
In short: (§1)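 Compound was spiked over a wide concentration range into citrated human plasma, and clotting times were read on a coagulation instrument. PT was started with saline plus Thromboplastin-C. APTT used 120 s preincubation with Actin, then 0.02M CaCl2. TT used saline plus bovine thrombin (10 NIH units/mL). Doubling concentrations were obtained by linear extrapolation.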

[2] = Index of bioavailability (% Relative Activity) from plasma TT time course, oral vs i.v.; type: in vivo; details: p.o. dose per legend (20, 60 or 50 mg/kg)
Experimental: Parke Davis) at 37° C. […] Assays are done in duplicate and averaged. […] Each sample population represented alternating sequential time points.

human plasma [3] = assay: Human plasma anticoagulation, thrombin time (TT); type: biochemical; details: concentration required to double thrombin time, linear extrapolation
In short: as §1

human plasma [4] = assay: Human plasma anticoagulation, prothrombin time (PT); type: biochemical; details: concentration required to double PT, linear extrapolation
In short: as §1

thrombin = details: Bajusz et al., J. Med. Chem. 33, 1729-1735 (1990); cited from earlier work
Human Thrombin = Human Thrombin (Homo sapiens, UniProt P00734); assay: Inhibition of thrombin amidase activity (Kass), chromogenic substrate; type: biochemical; details: mean Kass over a range of concentrations; substrate N-benzoyl-Phe-Val-Arg-p-nitroanilide
[5] = molecular target: T1, activated protein C (aPC) (Homo sapiens, UniProt P04070); assay: Inhibition of activated protein C (aPC), chromogenic substrate; type: biochemical; details: statement in words
T1 construct: made in house
Experimental: By substantially following the procedures described above for human thrombin, and using other human blood coagulation system serine proteases and proteases of the fibrinolytic system with the appropriate chromogenic substrates, identified below, selectivity of the compounds of the present invention with respect to the coagulation factor serine proteases and with respect to the fibrinolytic system serine proteases are evaluated as well as their substantial lack of interference with serine proteases of the fibrinolytic system. Thrombin inhibitors preferably should spare fibrinolysis induced by urokinase, tissue plasminogen activator (t-PA) and streptokinase. This would be important to the therapeutic use of such agents as an adjunct to streptokinase, t-PA or urokinase thrombolytic therapy and to the use of such agents as an endogenous fibrinolysis-sparing (with respect to t-PA and urokinase) antithrombotic agent. In addition to the lack of interference with the amidase activity of the fibrinolytic proteases, such fibrinolytic system sparing can be studied by the use of human plasma clots and their lysis by the respective fibrinolytic plasminogen activators.
Human factors X, Xa, IXa, XIa, and XIIa are purchased from Enzyme Research Laboratories, South Bend, Ind.; human urokinase from Leo Pharmaceuticals, Denmark; and recombinant activated Protein C (aPC) is prepared at Eli Lilly and Co. substantially according to U.S. Pat. No. 4,981,952. Chromogenic substrates: N-Benzoyl-Ile-Glu-Gly-Arg-p-nitroanilide (for factor Xa); N-Cbz-D-Arg-Gly-Arg-p-nitroanilide (for factor IXa assay as the factor Xa substrate); Pyroglutamyl-Pro-Arg-p-nitroanilide (for Factor XIa and for aPC); H-D-Pro-Phe-Arg-p-nitroanilide (for factor XIIa); and Pyroglutamyl-Gly-Arg-p-nitroanilide (for urokinase); are purchased from KabiVitrum, Stockholm, Sweden, or from Midwest Biotech, Fishers, Ind.. Bovine trypsin is purchased from Worthington Biochemicals, Freehold, N.J., and human plasma kallikrein from Kabi Vitrum, Stockholm, Sweden. […]

factor Xa = factor Xa (Homo sapiens, UniProt P00742); assay: Kass against factor Xa, chromogenic substrate; type: biochemical; details: substrate N-Benzoyl-Ile-Glu-Gly-Arg-p-nitroanilide
[6] = early clinical studies, Simoons et al., Circulation 90, I-231 (1994); cited from earlier work

T1 sequence (P04070 212-450 limits assumed): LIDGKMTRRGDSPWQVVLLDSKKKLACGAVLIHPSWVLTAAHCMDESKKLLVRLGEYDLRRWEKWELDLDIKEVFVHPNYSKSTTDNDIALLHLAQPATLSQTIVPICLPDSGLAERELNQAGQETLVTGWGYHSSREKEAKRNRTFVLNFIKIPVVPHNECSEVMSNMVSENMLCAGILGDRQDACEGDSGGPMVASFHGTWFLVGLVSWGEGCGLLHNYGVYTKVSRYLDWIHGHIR
T1 sequence (P04070 43-197 partner limits assumed): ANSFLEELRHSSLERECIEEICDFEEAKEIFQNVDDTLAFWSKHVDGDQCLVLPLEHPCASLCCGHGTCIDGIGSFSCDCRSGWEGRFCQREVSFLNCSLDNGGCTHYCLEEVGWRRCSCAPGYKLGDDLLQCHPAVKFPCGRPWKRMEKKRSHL
Chain of factor Xa (P00742 235-488 limits assumed): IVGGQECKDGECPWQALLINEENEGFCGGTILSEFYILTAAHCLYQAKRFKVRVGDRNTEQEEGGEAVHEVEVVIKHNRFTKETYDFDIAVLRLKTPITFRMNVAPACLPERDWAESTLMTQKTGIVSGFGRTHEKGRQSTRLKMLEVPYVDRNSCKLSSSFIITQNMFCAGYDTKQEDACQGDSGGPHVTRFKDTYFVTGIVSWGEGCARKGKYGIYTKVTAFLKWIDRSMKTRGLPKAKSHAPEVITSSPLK
Chain of factor Xa (P00742 41-179 partner limits assumed): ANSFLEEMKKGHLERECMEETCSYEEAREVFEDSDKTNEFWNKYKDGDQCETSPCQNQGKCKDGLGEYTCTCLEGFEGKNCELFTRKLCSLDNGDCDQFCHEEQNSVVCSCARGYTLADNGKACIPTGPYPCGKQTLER

SMILES | Human Plasma Anticoagulation 2x Clotting time APTT (human plasma [1]) | % oral/i.v. activity (Rat), screening not completed [2] | Human Plasma Anticoagulation 2x Clotting time TT (human plasma [3]) | Human Plasma Anticoagulation 2x Clotting time PT (human plasma [4]) | direct inhibition of thrombin (thrombin) | Kass Human Thrombin (Human Thrombin) | inhibition of activated protein C (aPC) [5] | Kass Xa (factor Xa) | anticoagulant in man [6]
N=C(N)c1cc(F)c(CNC(=O)[C@@H]2CCCN2C(=O)[C@@H](CC2CCCCC2)NCC(=O)O)c(F)c1 [Example 72, N-(carboxymethyl)-D-cyclohexylalanyl-N-[[4-(aminoiminomethyl-2,6-difluorophenyl]methyl]-L-prolinamide hydrochloride] | 160 ng/mL | NC^1 | 1 ng/mL | 160 ng/mL |  |  |  |  | 
N=C(N)c1ccc(CNC(=O)[C@@H]2CCCN2C(=O)[C@@H](CC2CCCCC2)NCC(=O)O)c(F)c1 [Example 71, N-(carboxymethyl)-D-cyclohexylalanyl-N-[[4-(aminoiminomethyl)-2-fluorophenyl]methyl]-L-prolinamide hydrochloride] | 89 ng/mL | NC^1 | 1 ng/mL | 150 ng/mL |  |  |  |  | 
CCS(=O)(=O)N[C@H](Cc1ccccc1)C(=O)N1[C@H](C(=O)NCc2ccc(C(=N)N)cc2)C[C@@H]2CCCC[C@@H]21 (relative stereo) [Example 45, hydrochloride] | 200 ng/mL | NC^2 | 8 ng/mL | 330 ng/mL |  |  |  |  | 
CC(C)(C)OC(=O)N[C@H](Cc1ccccc1)C(=O)N1CCC[C@H]1C(=O)N[C@H](C=O)CCCNC(=N)N [Boc-D-Phe-Pro-Arg-H] |  |  |  |  | potent direct inhibition |  |  |  | 
Cl.Cl.N=C(N)c1ccc(CNC(=O)C2CC3CCCCC3N2C(=O)C2NCCC3CCCCC32)cc1 [Example 42, D-1-Piq-cis-Ohi-p-NHCH2 C6 H4 C(NH)NH2.2HCl] | 270 ng/mL | NC2 | 20 ng/mL | 320 ng/mL |  | 38 × 10^6 (L/mole) |  |  | 
N=C(N)c1ccc(CNC(=O)[C@@H]2CCCN2C(=O)[C@@H](CC2CCCCC2)NCC(=O)O)nc1 [Example 66, N-(carboxymethyl)-D-cyclohexylalanyl-N-[[5-(aminoiminomethyl)pyridin-2-yl]methyl]-L-prolinamide hydrochloride] | 180 ng/mL |  | 7.9 ng/mL | 270 ng/mL |  |  | very weak inhibition |  | 
N=C(N)NCCC[C@@H](C=O)NC(=O)[C@@H]1CCCN1C(=O)[C@H](N)Cc1ccccc1 [D-Phe-Pro-Arg-H] |  |  |  |  | potent direct inhibition |  |  |  | 
Cl.Nc1ccc(CNC(=O)[C@@H]2CCCN2C(=O)[C@@H](CC2CCCCC2)NCC(=O)O)c(F)c1 [Example 64, HO2 CCH2 -D-Cha-Pro-4-NHCH2 -3-F-C6 H3 NH2.HCl] | 900 ng/mL | NC^3 | 23 ng/mL | 650 ng/mL |  | 15 × 10^6 (L/mole) |  |  | 
CN[C@H](Cc1ccccc1)C(=O)N1CCC[C@H]1C(=O)N[C@H](C=O)CCCNC(=N)N [D-MePhe-Pro-Arg-H] |  |  |  |  | potent direct inhibition |  |  |  | 
CCS(=O)(=O)N[C@H](Cc1ccccc1)C(=O)N1CCC[C@H]1C(=O)NCCc1cccc(N=C(N)N)c1.Cl [Example 37, EtSO2 -D-Phe-Pro-m-NHCH2 CH2 C6 H4 NHC(NH)NH2.HCl] | > 9,000 ng/mL |  | > 9,000 ng/mL | > 9,000 ng/mL |  | 0.02 × 10^6 (L/mole) |  | < 0.009 × 10^6 (L/mole) | 
Cl.Cl.Cl.N=C(N)c1ccc(CNC(=O)[C@@H]2CCCN2C(=O)[C@@H](CC2CCCCC2)NCC(=O)O)nn1 [Example 69, N-(carboxymethyl)-D-cyclohexylalanyl-N-[[6-(aminoiminomethyl)pyridazin-3-yl]methyl]-L-prolinamide tri-hydrochloride] | 110 ng/mL |  | 5 ng/mL | 220 ng/mL |  | 340 × 10^6 (L/mole) | very weak inhibition |  | 
N=C(N)C1=CNC(CNC(=O)[C@@H]2CCCN2C(=O)[C@@H](CC2CCCCC2)NCC(=O)O)CC1 (stereo partly drawn) [Example 68, N-(carboxymethyl)-D-cyclohexylalanyl-N-[[5-(aminoiminomethyl)-1,2,3,4-tetrahydropyridin-2-yl]methyl]L-prolinamide hydrochloride] | 49 ng/mL |  | 4 ng/mL | 190 ng/mL |  |  | very weak inhibition |  | 
CCS(=O)(=O)N[C@H](Cc1ccccc1)C(=O)N1CCC[C@H]1C(=O)NCCc1ccc(C(=N)N)cc1 [Example 26, EtSO2 -D-Phe-Pro-p-NHCH2 CH2 -C6 H4 C(=NH)NH2.HCl] | 870 ng/mL | NC^1 | 37 ng/mL | 750 ng/mL |  |  |  |  | 
N=C(N)c1ccc(CNC(=O)[C@@H]2C[C@@H]3CCCC[C@@H]3N2C(=O)[C@@H](Cc2ccccc2)NCC(=O)O)cc1 (relative stereo) [Example 47, HOOCCH2 -D-Phe-cis-Ohi-p-NHCH2 C6 H4 C(NH)NH2.HCl] | 140 ng/mL | NC^2 | 12 ng/mL | 270 ng/mL |  | 45 × 10^6 (L/mole) |  |  | 
CN[C@H](Cc1ccccc1)C(=O)N1CCC[C@H]1C(=O)N[C@H](C=O)CCCNC(=N)N.O=S(=O)(O)O [D-MePhe-Pro-Arg-H sulfate] |  |  |  |  |  |  |  |  | is an anticoagulant in man
